What was measured:
[1] = tested on: MPTP acute model mice; experiment: Experiment 3: RotaRod test, MPTP acute model (BL-1023*); assay type: in vivo, C57/BL/6J mice; settings: day 12, after initiation of treatment, per os
Experimental: Mice were administered the following treatments: saline (Control), MPTP+saline (MPTP), MPTP+L-DOPA 30 mg/kg (MPTP+Dopa), MPTP+L-DOPA 30 mg/kg+GABA 18.4 mg/kg (MPTP+G+D) MPTP+BL1023* 48.4 mg/kg (MPTP+1023 30) and MPTP+BL-1023* 24.2 mg/kg (MPTP+BL1023 15). The MPTP neurotoxin was administered on day 0, with 4 IP injections (each injection contained 20 mg/kg, 5 ml/kg) in saline. The various treatments or saline were administered on day 7, 9, 11 and 13 (total of 4 treatments). Each group of mice (n=10) was subjected to the RotaRod test, on day 6 (before initiation of treatment, FIG. 9A) and day 12 (after initiation of treatment, FIG. 9B) and the observed average duration on Rod, tested three times, are presented.
(§1) Acute model: On day 1, C57/BL mice received 4× […] injections of 20 mg/kg MPTP-HCl (Sigma), dissolved in saline solution, at 2 hours intervals.
RotoRod Test: The test measures and records motor coordination of rats and mice using the natural fear of falling motivation. RotoRod (San Diego Industries, San Diego, Calif., USA) was set on 16 rpm speed and accelerated to maximum speed of 25 rpm. The time until the mouse fall was measured up to maximum 4 minutes. The measurements were performed three times for each mouse and the average was calculated. […] When the animal falls from the rotating rod, the photo beams were broken and the Rota-Rod recorded the animal's latency to fall. […]

[2] = tested on: MPTP sub-acute model mice; experiment: Experiment 2: observed vitality signs (level of motion, fur appearance), MPTP sub-acute model; assay type: in vivo, C57/BL/6J mice; settings: MPTP sub-acute model, per os treatment; on Fur, observer 1: key: Split fur +; Shiny fur +++; on Fur, observer 2: key: Split fur +; Shiny fur +++; on Fur, observer 3: key: Split fur +; Shiny fur +++; on Fur, observer 4: key: Split fur +; Shiny fur +++; on Vitality, observer 3: key: slow motions +; normal motion +++; on Vitality, observer 4: key: slow motions +; normal motion +++
Excerpt: FIG. […] 6 hereinabove. Six independent observers estimated the level of mice vitality by the level of motion of the mice (light purple, marked vitality) and fur appearance (dark purple). The results are an average of the observers' reports.

[3] = tested on: MPTP acute model mice; experiment: Experiment 1: open field test, MPTP acute model (AN-490); assay type: in vivo, C57/BL/6J mice
Experimental: The MPTP neurotoxin was administered on day 0, with 4 IP injections (each injection contained 20 mg/kg, 5 ml/kg) in saline. The various treatments or saline were administered on days 0, 1, 2, 3, 6, 7, 13 and 16. Each group of mice (n=6) was subjected, on days 3, 6, 8 and 16, to the open field test, and the following parameters were scored: the distance moved (FIGS. 2A and 2B), velocity (FIGS. 2C and 2D), time spent immobile (FIGS. 2E and 2F) and time spent in a high level of mobility (FIGS. 2G and 2H; strong mobility) during a period of 20 minutes. FIGS. 2A, 2C, 2E and 2G present the data obtained for the control mice, mice treated with L-DOPA and mice treated with AN-490. FIGS. 2B, 2D, 2F and 2H present the data obtained for control mice or mice treated with MPTP, MPTP with L-DOPA and MPTP with AN-490.
as §1
The open field test measures behavioral responses, locomotor activity, hyperactivity, and exploratory behaviors. Open field test is also used as a measure of anxiety. Mice tend to avoid brightly illuminated, novel, open spaces, so the open field environment acts as an anxiogenic stimulus and allows for measurement of anxiety-induced locomotor activity and exploratory behaviors. The apparatus for the open field test is a square (0.5×0.5 meter) made of white melamine. All activities were recorded by a video camera mounted above the open field and scored in real-time by a motion-recognition software package (Noldus, Holland) that detects and analyzes the movements of the animals. The video image of the open field arena was partitioned into equal-size squares zone. Total distance, average speed, rearing/elongation behavior, and time spent in various parts of the field (e.g. the border areas vs. mid-area) were measured. Testing was carried out in a temperature, noise and light controlled room.

[4] = tested on: MPTP-Induced Parkinson's Disease Model in Mice; experiment: Example 2: MPTP acute toxicity model, tyrosine hydroxylase immunoreactive cells in the SNpc; assay type: in vivo, mice strain C57/bl; settings: day 7, MPTP 4 x 20 mg/kg IP day 0, S.C once daily days 0-7, 40 mg/kg L-DOPA or equimolar
Experimental: Mice were administered 4 injections IP of MPTP (each injection contained 20 mg/kg, 5 ml/kg) or saline alone (control) at 2 hours intervals on day 0. Mice were then administered subcutaneously test solutions (TI) (either saline, L-DOPA or BL-1023) once daily throughout the 8 successive treatment days (days 0-7). On day 7, the mice were sacrificed and their brains were removed for immunohistochemistry analysis of the number of tyrosine hyroxylase immunostained cells at the level of the Substantia Nigra (SNpc).
Young adult (7-8 weeks old) male mice strain C57/bl were acclimated for one week prior to MPTP initiation. During acclimation and throughout the entire study duration, animals were housed within a limited access rodent facility and kept in groups of maximum 5 mice in polypropylene cages (23×17×14 cm), fitted with solid bottoms and filled with wood shavings as bedding material. Animals were provided ad libitum a commercial rodent diet and free access to drinking water, supplied to each cage via polyethylene bottles with stainless steel sipper tubes. […]
Immunohistochemistry staining was performed using Rabbit anti tyrosin hydroxylase (1:100). […] Quantitative analysis was effected by counting of immunoreactive cells at the widest dimension of the SNpc lateral to the roots of the third cranial nerve separating medial and lateral SNpc at the level of interpreduncular nucleus.

[5] = 0.16 ionic strength and 25° C.; cited from earlier work

## N[C@@H](Cc1ccc(O)c(O)c1)C(=O)O [L-DOPA, 3,4-dihydroxy-L-phenylalanine]
[1]
  latency in the rotarod test shortened by MPTP: not attenuated
[2]
  Fur, observer 1: +++
  Fur, observer 2: +++
  Fur, observer 3: +++
  Fur, observer 4: +++
  Vitality, observer 3: +++
  Vitality, observer 4: +++
[3]; MPTP treated mice, L-DOPA 25 mg/kg or AN-490 67.5 mg/kg by oral gavage, days 3, 6, 8, 16
  motility / motor activity in open field: lower the motility
[3]; mice not treated with MPTP, L-DOPA 25 mg/kg per os, vs naïve mice or equimolar AN-490
  motility in open field (distance moved, velocity, strong mobility, immobility): tendency toward increase in motility
[4]
  Number of TH Cells: 39
[5]
  pKNH3: 9.42
  pKOH: 8.97

— US8722923B2, “Conjugates for treating neurodegenerative diseases and disorders” (Ramot at Tel-Aviv University Ltd., priority 2008, dated 2014)
